Consider 13 compounds from patent publication US5455161A, “Method for the monitoring of multiple anticancer drug resistance” (priority 1992, dated 1995).

Numbered stars: 1 amine (or outer) side, 2 acyl side, 3 side chain; on linkers, the order of the positions; unused ones are H or OH. Bridge positions count the residues as written; N and C are the ends. Square brackets hold non-standard residues; d marks the D form. Peptide text beside a SMILES is read from it. I, II: the chains in the order shown. Actinocin(9to1) = Cc1c2oc3c(C)ccc(C(=O)[*:1])c3nc-2c(C(=O)[*:2])c(N)c1=O; NMeV = CN[C@H](C(=O)O)C(C)C; Sar = CNCC(=O)O

For test [1], the system named is AA8 cells. Kind of test: ODC (ornithine decarboxylase activity) assay of cellular drug sensitivity, wild type AA8 cells. The class given is cell-based, Chinese hamster. Conditions: for IC50: Cricetulus griseus, read-out: IC50 (ODC assay) AA8. How it is done: (§1) The protein determinations were carried out according to the method of Bradford (Anal.Biochem. 72, 248-54, 1976), using lysozyme, triple crystallization and dialysis, as a standard.
(§2) Monolayers of parental AA8 and multidrug resistant T19 cells grown for 4 days at 37° C., were exposed to various concentrations of the antimitotic agent colchinine, for 6 hours, 18 hours and 48 hours and then the activity of ornithine decarboxylase was determined.
(§3) In the same manner, this assay was tested with various anticancer drugs of various structure and distinct mechanisms of action. The following cytotoxic agents were tested: vinca alkaloids, anthracyclines, epipodophyllotoxins, actinomycin D and antifolates.

Test [2] concerns T19 cells. Put plainly: cells. The class given is cell-based, Chinese hamster. The procedure:
(§4) Clonogenic cytotoxic assays were performed with AA8 and T19 cells exposed to various concentrations of colchinine for 6 hours, 18 hours, 48 hours or continuously, and each time the clonal surviving fractions were determined.

Test [3] has as its system AA8 cells. Put plainly: cells. The format is cell-based, Chinese hamster. Conditions: for IC50: Cricetulus griseus, CHO-AA8, read-out: LD50 (clonogenic assay) AA8. How it is done:
as §4

In test [4] the test system is T19 cells. Kind of test: ODC (ornithine decarboxylase activity) assay of drug resistance, multidrug resistant T19 cells. To be noted: for IC50: Cricetulus griseus, read-out: IC50 (ODC assay) T19; for Resistance (-fold), ODC assay, T19 versus AA8: T19/AA8 ratio of IC50. The class given is cell-based, Chinese hamster. How it is done: as §1, §2, §3
Test [5] addresses T1, ornithine decarboxylase from AA8 cells (Cricetulus griseus, UniProt P14019).
T1 sequence (P14019 1-455): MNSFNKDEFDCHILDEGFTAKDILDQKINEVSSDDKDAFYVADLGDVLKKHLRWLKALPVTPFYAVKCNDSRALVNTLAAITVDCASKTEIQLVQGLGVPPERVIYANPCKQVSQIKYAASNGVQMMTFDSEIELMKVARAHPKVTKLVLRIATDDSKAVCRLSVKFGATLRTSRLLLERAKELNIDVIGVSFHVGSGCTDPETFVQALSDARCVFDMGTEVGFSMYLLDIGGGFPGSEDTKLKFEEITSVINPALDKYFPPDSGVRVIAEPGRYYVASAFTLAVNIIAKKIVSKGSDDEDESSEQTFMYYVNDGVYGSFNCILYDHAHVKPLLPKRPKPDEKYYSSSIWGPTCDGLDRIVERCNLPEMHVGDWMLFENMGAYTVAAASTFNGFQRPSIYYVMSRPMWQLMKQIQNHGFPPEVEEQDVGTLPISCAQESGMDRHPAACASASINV
Kind of test: biochemical. Conditions: IC50, concentration required to reduce the ornithine decarboxylase by 50%.
Experimental: Monolayer cells grown in the absence and presence of a known cytotoxic agent, were washed twice with 10 mls of phosphate-buffered saline and suspended in a petri dish (0.5 ml/10 cm) in an ice-cold ornithine decarboxylase buffer containinig 50 mM of Tris-Cl, pH=7.3, 0.1 mM ethylene diamine tetraacetic acid, 50 uM pyridoxal 5'-phosphate (Sigma) and 5 mM of dithiothreitol. The cells were lysed under three cycles of freezing in liquid nitrogen and thawing at 37° C. The cell lysates were then centrifuged at 15,000 g for 15 minutes at 4° C., the supernatant liquid was collected and used in the assay for the ornithine decarboxylase activity. The assay was based on the Djurhuss method that utilizes a strong cation-exchange paper (Anal. Biochem. 113:352-5, 1981). […] After incubation for 60 minutes at 37° C. under agitation, the reaction mixture was spotted onto a strip of P81 cellulose phosphate paper and dried. After washing in a solution of 0.1M ammonium hydroxide and drying,liquid scintillation counting was performed. In similar manner, blank values were determined by using 80 ul of ornithine decarboxylase buffer, instead of the cytosolic cell extract.

The mark [6] stands for this setting: CHO-AA8, incubation time 48 hr, mean of two to four independent experiments.
The mark [7] stands for this setting: Cricetulus griseus, read-out: LD50 (clonogenic assay) T19.
The mark [8] stands for this setting: incubation time 48 hr, mean of two to four independent experiments.
[9] abbreviates: CHO-AA8, incubation time 18 hr, mean of two to four independent experiments.
Setting [10] is: incubation time 18 hr, mean of two to four independent experiments.

In the case of `COc1cc(NCc2ccc3nc(N)nc(N)c3c2C)cc(OC)c1OC` [Trimetrexate], the IC50 in the test on AA8 cells [1] (setting [6]) was determined as 2.9 nM; in the test with T19 cells [2] (setting [7]), 68.6 nM; in the test with AA8 cells [3], 2.4 nM; in the test on T19 cells [4] (setting [8]) it was 72.4 nM. Also, the “Resistance (-fold), clonogenic assay, T19 versus AA8” value (“Resistance (-fold), clonogenic assay” below) in the test on T19 cells [2] (hamster, t19 vs aa8 cells) is on record as 28.6 -fold. In addition, the “Resistance (-fold), ODC assay, T19 versus AA8” value (“Resistance (-fold), ODC assay” for short) in the test on T19 cells [4] (incubation time 48 hr) is 25.0 -fold.

`Cc1c2oc3c(C)ccc(C(=O)N[C@@H]4C(=O)N[C@H](C(C)C)C(=O)N5CCC[C@H]5C(=O)N(C)CC(=O)N(C)[C@@H](C(C)C)C(=O)O[C@@H]4C)c3nc-2c(C(=O)N[C@@H]2C(=O)N[C@H](C(C)C)C(=O)N3CCC[C@H]3C(=O)N(C)CC(=O)N(C)[C@@H](C(C)C)C(=O)O[C@@H]2C)c(N)c1=O` [Actinomycin D] (I: T[dV]P[Sar][NMeV] / II: T[dV]P[Sar][NMeV]; ester I:1-I:C, II:1-II:C; linker I:N-II:N via Actinocin(9to1)): the IC50 in the test on AA8 cells [1] (CHO-AA8, 18 h) worked out at 3.7 nM; with T19 cells [2] (setting [7]), 49.7 nM; with AA8 cells [3], 2.2 nM; in the test on T19 cells [4] (18 h), 42 nM. The “Resistance (-fold), clonogenic assay” value in the test with T19 cells [2] (ratio of LD50 T19/AA8) is 22.6 -fold. Moreover, the “Resistance (-fold), ODC assay” value in the test with T19 cells [4] (incubation time 18 hr) is 11.3 -fold.

As for `COc1cccc2c1C(=O)c1c(O)c3c(c(O)c1C2=O)C[C@@](O)(C(=O)CO)C[C@@H]3O[C@H]1C[C@H](N)[C@H](O)[C@H](C)O1` [Doxorubicin], the IC50 in the test on AA8 cells [1] (setting [6]) was found to be 55 nM; in the test on T19 cells [2] (setting [7]) it was 8450 nM; with AA8 cells [3] it was 40 nM; in the test with T19 cells [4] (setting [8]) it was 3580 nM. Moreover, the “Resistance (-fold), ODC assay” value with T19 cells [4] (incubation time 48 hr) is recorded as 65.0 -fold.

As to `COc1cc2c(c(OC)c1OC)-c1ccc(OC)c(=O)cc1[C@@H](NC(C)=O)CC2` [Colchicine], the “ornithine decarboxylase activity with increased drug concentrations” value with AA8 cells [1] (exposure 6, 18 and 48 hours) is given as “dose-dependent decrease”. The IC50 in the test on T19 cells [2] (read-out: LD50 (50% lethal dose), clonal survival, t19 cells) was determined as 6700 nM. Also, in the test on AA8 cells [3], the “LD50 (clonogenic assay) AA8” value stood at 100 nM.

On to `NCCCC(N)(C(=O)O)C(F)F` (racemic) [DMFO, DL-o-difluoromethylornithine], for which the IC50 was 5000 nM in test [5] (extract of AA8-induced cells (received fresh serum-containing medium), 2x10^7 cells) and 1100 nM in test [5] (extract of non-induced AA8 cells (no fresh medium), same number of cells).

On to `CC[C@]1(O)C[C@@H]2CN(CCc3c([nH]c4ccccc34)[C@@](C(=O)OC)(c3cc4c(cc3OC)N(C)[C@H]3[C@@](O)(C(=O)OC)[C@H](OC(C)=O)[C@]5(CC)C=CCN6CC[C@]43[C@@H]65)C2)C1` [Vinblastine], for which the IC50 was found to be 15.9 nM in the test on AA8 cells [1] (setting [9]), 80 nM in the test with T19 cells [2] (setting [7]), 3 nM in the test on AA8 cells [3] and 275 nM in the test with T19 cells [4] (setting [10]). In addition, in the test with T19 cells [2] (hamster, t19 vs aa8 cells), the “Resistance (-fold), clonogenic assay” value is reported as 26.7 -fold. Also, in the test on T19 cells [4] (incubation time 18 hr), the “Resistance (-fold), ODC assay” value was 17.3 -fold.

For `Cc1nc(N)nc(N)c1-c1ccc(Cl)c(Cl)c1` [Metoprine], the IC50 with AA8 cells [1] (setting [6]) was determined as 13.8 nM; with T19 cells [2] (setting [7]), 33.7 nM; in the test on AA8 cells [3] it was 12.6 nM; with T19 cells [4] (setting [8]) it was 53.2 nM. In the test with T19 cells [2] (hamster, t19 vs aa8 cells), the “Resistance (-fold), clonogenic assay” value is listed as 2.7 -fold. Moreover, the “Resistance (-fold), ODC assay” value with T19 cells [4] (incubation time 48 hr) is on record as 3.9 -fold.

Take `CC[C@]1(O)C[C@H]2CN(CCc3c([nH]c4ccccc34)[C@@](C(=O)OC)(c3cc4c(cc3OC)N(C=O)[C@H]3[C@@](O)(C(=O)OC)[C@H](OC(C)=O)[C@]5(CC)C=CCN6CC[C@]43[C@@H]65)C2)C1` [Vincristine]: the IC50 in the test with AA8 cells [1] (setting [9]) is 79.6 nM; in the test on T19 cells [2] (setting [7]) it was 229 nM; in the test with AA8 cells [3], 8.2 nM; in the test with T19 cells [4] (setting [10]), 1530 nM. Further, the “Resistance (-fold), clonogenic assay” value with T19 cells [2] (hamster, t19 vs aa8 cells) is given as 28.1 -fold. In addition, in the test with T19 cells [4] (incubation time 18 hr), the “Resistance (-fold), ODC assay” value is on record as 19.2 -fold.

On to `COc1ccc(OC)c(Cc2cnc3nc(N)nc(N)c3c2C)c1` [Piritrexim], for which the IC50 with AA8 cells [1] (setting [6]) was 5.8 nM; in the test with T19 cells [2] (setting [7]), 113 nM; with AA8 cells [3] it was 4.6 nM; in the test on T19 cells [4] (setting [8]), 127 nM. For the same compound, the “Resistance (-fold), clonogenic assay” value in the test on T19 cells [2] (ratio of LD50 T19/AA8) is reported as 24.5 -fold. The “Resistance (-fold), ODC assay” value in the test on T19 cells [4] (incubation time 48 hr) is listed as 22.0 -fold.

For the compound `COc1cccc2c1C(=O)c1c(O)c3c(c(O)c1C2=O)C[C@@](O)(C(C)=O)C[C@@H]3O[C@H]1C[C@H](N)[C@H](O)[C@H](C)O1` [Daunorubicin], the IC50 in the test with AA8 cells [1] (setting [6]) came out at 29.6 nM; in the test with T19 cells [2] (setting [7]) it was 726 nM; in the test on AA8 cells [3], 8.6 nM; in the test with T19 cells [4] (setting [8]), 1860 nM. Also, in the test with T19 cells [2] (hamster, t19 vs aa8 cells), the “Resistance (-fold), clonogenic assay” value was 84.1 -fold. For the same compound, the “Resistance (-fold), ODC assay” value in the test with T19 cells [4] (incubation time 48 hr) is reported as 63.0 -fold.

As for `CN(Cc1cnc2nc(N)nc(N)c2n1)c1ccc(C(=O)N[C@@H](CCC(=O)O)C(=O)O)cc1` [Methotrexate], the IC50 in the test with AA8 cells [1] (setting [6]) was 56.5 nM; in the test with T19 cells [2] (setting [7]), 30.6 nM; with AA8 cells [3] it was 25.1 nM; in the test on T19 cells [4] (setting [8]), 63.8 nM. The “Resistance (-fold), clonogenic assay” value in the test on T19 cells [2] (hamster, t19 vs aa8 cells) is 1.2 -fold. For the same compound, in the test on T19 cells [4] (incubation time 48 hr), the “Resistance (-fold), ODC assay” value is given as 1.1 -fold.

In the case of `COc1cc([C@@H]2c3cc4c(cc3[C@@H](O[C@@H]3O[C@@H]5CO[C@@H](C)O[C@H]5[C@H](O)[C@H]3O)[C@H]3COC(=O)[C@H]23)OCO4)cc(OC)c1O` [Etoposide], the IC50 with AA8 cells [1] (CHO-AA8, 48 h) came out at 366 nM; in the test on T19 cells [2] (setting [7]), 4200 nM; with AA8 cells [3] it was 265 nM; in the test on T19 cells [4] (48 h), 4180 nM. In the test on T19 cells [2] (ratio of LD50 T19/AA8), the “Resistance (-fold), clonogenic assay” value is given as 15.9 -fold. In addition, the “Resistance (-fold), ODC assay” value in the test on T19 cells [4] (incubation time 48 hr) is 11.4 -fold.

In the case of `COc1ccc(C[C@H](N)C(=O)N[C@H]2[C@@H](O)[C@H](n3cnc4c(N(C)C)ncnc43)O[C@@H]2CO)cc1` [Puromycin], the IC50 in the test on AA8 cells [1] (setting [6]) stood at 10.5 nM; in the test with T19 cells [2] (setting [7]) it was 116 nM; in the test with AA8 cells [3] it was 4.5 nM; in the test with T19 cells [4] (setting [8]) it was 315 nM. Further, in the test on T19 cells [2] (hamster, t19 vs aa8 cells), the “Resistance (-fold), clonogenic assay” value was 25.8 -fold. Also, in the test on T19 cells [4] (incubation time 48 hr), the “Resistance (-fold), ODC assay” value is recorded as 30.0 -fold.
